Results from ChEMBL document CHEMBL1909046, “DrugMatrix in vitro pharmacology data”.

Legend:
[1] = biological target: T1, Substance-K receptor (Homo sapiens, UniProt P21452); type: cell membranes, CHO, Membrane; settings: cho; note: in other assays of this panel Not Active means under 50% inhibition at 10 µM
T1 sequence (P21452 whole entry): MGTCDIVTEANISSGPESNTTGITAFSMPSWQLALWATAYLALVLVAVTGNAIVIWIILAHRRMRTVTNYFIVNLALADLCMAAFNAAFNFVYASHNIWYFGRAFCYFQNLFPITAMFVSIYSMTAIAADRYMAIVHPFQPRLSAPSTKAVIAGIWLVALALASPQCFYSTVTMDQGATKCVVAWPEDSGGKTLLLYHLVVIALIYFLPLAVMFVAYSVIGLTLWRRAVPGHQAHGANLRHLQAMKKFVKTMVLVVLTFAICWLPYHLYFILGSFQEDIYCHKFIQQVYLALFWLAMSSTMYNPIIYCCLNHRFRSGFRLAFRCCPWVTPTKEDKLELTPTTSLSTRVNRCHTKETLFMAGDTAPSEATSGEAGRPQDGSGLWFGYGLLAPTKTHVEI

[2] = DRUGMATRIX: Calcium Channel Type L, Benzothiazepine radioligand binding (ligand: [3H] Diltiazem); type: cell membranes, Rattus norvegicus, Wistar, Brain, Membrane; settings: Not Active = under 50% inhibition at 10 µM
[3] = biological target: Voltage-gated inwardly rectifying potassium channel KCNH2 (Homo sapiens, UniProt Q12809); settings: hek293; note: in other assays of this panel Not Active means under 50% inhibition at 10 µM
[4] = DRUGMATRIX: Glutamate, NMDA, Agonism radioligand binding (ligand: [3H] CGP-39653); type: cell membranes, Rattus norvegicus, Wistar, Cerebral cortex, Membrane; settings: Not Active = under 50% inhibition at 10 µM
[5] = DRUGMATRIX: Glutamate, NMDA, Phencyclidine radioligand binding (ligand: [3H] TCP); type: cell membranes, Rattus norvegicus, Wistar, Cerebral cortex, Membrane; settings: Not Active = under 50% inhibition at 10 µM
[6] = biological target: Mitogen-activated protein kinase 3 (Homo sapiens, UniProt P27361); assay: DRUGMATRIX: Protein Serine/Threonine Kinase, ERK1 enzyme inhibition (substrate: Myelin Basic Protein); parameters: species or system Escherichia coli; settings: Not Active = under 50% inhibition at 10 µM
[7] = biological target: Acetylcholinesterase (Homo sapiens, UniProt P22303); assay: DRUGMATRIX: Acetylcholinesterase enzyme inhibition (substrate: acetylthiocholine); type: cell-based, HEK293; settings: hek293; Not Active = under 50% inhibition at 10 µM
[8] = biological target: Aldo-keto reductase family 1 member B1 (Rattus norvegicus, UniProt P07943); type: tissue-based, Lens of camera-type eye;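 note: inhibition of aldose reductase enzyme activity, measured with DL-glyceraldehyde as the substrate; in other assays of this panel Not Active means under 50% inhibition at 10 µM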
[9] = biological target: T2, Type-2 angiotensin II receptor (Homo sapiens, UniProt P50052); type: cell-based; settings: cho-k1; note: in other assays of this panel Not Active means under 50% inhibition at 10 µM
T2 sequence (P50052 whole entry): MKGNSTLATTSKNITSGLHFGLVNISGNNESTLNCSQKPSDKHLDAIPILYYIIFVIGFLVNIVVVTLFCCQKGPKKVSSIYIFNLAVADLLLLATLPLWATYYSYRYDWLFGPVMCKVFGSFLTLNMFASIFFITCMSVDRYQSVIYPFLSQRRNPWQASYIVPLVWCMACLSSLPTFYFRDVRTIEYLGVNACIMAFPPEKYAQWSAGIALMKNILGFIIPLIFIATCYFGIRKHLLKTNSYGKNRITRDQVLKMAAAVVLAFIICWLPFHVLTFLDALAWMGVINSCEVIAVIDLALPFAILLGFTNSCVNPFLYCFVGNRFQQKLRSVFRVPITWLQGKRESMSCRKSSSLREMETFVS

[10] = biological target: Tyrosine-protein kinase Fyn (Homo sapiens, UniProt P06241); assay: biochemical; type: cell-based, Insect cells; settings: insect cells
[11] = biological target: Mitogen-activated protein kinase 1 (Homo sapiens, UniProt P28482); assay: DRUGMATRIX: Protein Serine/Threonine Kinase, ERK2 enzyme inhibition (substrate: Myelin Basic Protein); parameters: species or system Escherichia coli; settings: Not Active = under 50% inhibition at 10 µM
[12] = biological target: T3, Neuropeptide Y receptor type 1 (Homo sapiens, UniProt P25929); type: cell membranes, Membrane; settings: sk-n-mc; note: in other assays of this panel Not Active means under 50% inhibition at 10 µM
T3 sequence (P25929 whole entry): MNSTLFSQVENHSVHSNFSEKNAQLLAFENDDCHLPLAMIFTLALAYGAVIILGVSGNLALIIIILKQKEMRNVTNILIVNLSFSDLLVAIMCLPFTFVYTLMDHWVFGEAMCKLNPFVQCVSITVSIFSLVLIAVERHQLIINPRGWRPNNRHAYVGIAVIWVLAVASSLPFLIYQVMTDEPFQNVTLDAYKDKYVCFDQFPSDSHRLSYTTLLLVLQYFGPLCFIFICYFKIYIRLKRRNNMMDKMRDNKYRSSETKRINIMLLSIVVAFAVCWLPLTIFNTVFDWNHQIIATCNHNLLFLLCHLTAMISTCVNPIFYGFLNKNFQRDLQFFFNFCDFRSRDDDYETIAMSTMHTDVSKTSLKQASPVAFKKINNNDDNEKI

[13] = DRUGMATRIX: Platelet-Derived Growth Factor (PDGF) radioligand binding (ligand: [125I] PDGF); type: cell-based; settings: nih3t3; Not Active = under 50% inhibition at 10 µM
[14] = biological target: T4, C-C chemokine receptor type 4 (Homo sapiens, UniProt P51679); type: cell membranes, Membrane; settings: chem-1; note: in other assays of this panel Not Active means under 50% inhibition at 10 µM
T4 sequence (P51679 whole entry): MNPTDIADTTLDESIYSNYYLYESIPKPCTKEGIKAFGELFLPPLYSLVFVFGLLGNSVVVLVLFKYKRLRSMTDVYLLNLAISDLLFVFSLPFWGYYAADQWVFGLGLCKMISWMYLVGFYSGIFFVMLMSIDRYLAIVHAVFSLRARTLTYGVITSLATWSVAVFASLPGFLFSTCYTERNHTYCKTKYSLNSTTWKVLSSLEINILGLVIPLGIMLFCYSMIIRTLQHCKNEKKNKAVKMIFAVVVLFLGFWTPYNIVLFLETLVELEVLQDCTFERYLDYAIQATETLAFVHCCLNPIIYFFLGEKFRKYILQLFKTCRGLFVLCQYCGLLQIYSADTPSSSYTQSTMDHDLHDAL

[15] = biological target: Cytochrome P450 3A4 (Homo sapiens, UniProt P08684); settings: bti-tn-5b1-4; note: in other assays of this panel Not Active means under 50% inhibition at 10 µM
Cytochrome P450 3A4, sequence (P08684 whole entry): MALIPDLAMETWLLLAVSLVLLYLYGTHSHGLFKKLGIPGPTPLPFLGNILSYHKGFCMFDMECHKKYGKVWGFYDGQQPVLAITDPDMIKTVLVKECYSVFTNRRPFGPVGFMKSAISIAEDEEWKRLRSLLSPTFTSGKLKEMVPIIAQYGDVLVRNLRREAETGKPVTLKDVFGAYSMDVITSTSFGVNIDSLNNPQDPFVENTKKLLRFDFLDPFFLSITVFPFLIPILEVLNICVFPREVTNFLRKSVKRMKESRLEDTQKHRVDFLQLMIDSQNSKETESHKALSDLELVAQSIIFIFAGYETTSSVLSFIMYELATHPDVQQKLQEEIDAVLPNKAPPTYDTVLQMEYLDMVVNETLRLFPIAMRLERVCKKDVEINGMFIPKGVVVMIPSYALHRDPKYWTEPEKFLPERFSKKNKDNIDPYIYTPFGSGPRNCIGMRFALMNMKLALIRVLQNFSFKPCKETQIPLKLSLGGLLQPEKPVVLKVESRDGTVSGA

Tyrosine-protein kinase Fyn, sequence (P06241 whole entry): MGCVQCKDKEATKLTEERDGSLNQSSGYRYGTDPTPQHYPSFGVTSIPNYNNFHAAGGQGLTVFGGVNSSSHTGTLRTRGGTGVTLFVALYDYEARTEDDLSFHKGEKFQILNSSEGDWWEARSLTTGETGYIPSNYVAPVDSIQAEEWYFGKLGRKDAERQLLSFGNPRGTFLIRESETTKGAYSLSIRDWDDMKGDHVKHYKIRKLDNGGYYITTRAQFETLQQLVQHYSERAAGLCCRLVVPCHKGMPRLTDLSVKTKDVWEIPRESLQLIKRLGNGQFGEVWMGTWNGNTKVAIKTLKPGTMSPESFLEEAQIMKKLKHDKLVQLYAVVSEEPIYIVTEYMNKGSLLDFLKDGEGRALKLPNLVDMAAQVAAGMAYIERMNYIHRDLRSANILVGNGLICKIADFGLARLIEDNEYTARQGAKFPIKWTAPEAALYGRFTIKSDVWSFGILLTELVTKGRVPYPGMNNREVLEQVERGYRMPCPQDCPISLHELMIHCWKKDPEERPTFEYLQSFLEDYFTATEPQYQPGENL
Acetylcholinesterase, sequence (P22303 whole entry): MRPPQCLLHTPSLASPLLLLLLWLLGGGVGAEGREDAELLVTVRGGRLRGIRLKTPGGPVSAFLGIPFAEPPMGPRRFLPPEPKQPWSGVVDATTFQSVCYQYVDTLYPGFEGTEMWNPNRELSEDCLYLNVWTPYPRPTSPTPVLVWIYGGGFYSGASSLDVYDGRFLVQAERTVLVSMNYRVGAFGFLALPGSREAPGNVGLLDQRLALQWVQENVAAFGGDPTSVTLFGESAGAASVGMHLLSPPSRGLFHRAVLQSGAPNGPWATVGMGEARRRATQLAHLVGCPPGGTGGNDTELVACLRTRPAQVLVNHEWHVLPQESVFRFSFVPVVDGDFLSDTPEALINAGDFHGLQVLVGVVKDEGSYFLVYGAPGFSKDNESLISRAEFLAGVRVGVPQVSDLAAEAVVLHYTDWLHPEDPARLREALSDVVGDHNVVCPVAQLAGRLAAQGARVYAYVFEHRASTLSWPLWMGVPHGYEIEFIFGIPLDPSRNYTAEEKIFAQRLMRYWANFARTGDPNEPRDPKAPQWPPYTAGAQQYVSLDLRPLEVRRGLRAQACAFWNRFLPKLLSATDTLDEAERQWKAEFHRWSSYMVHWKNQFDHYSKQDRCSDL
Voltage-gated inwardly rectifying potassium channel KCNH2, sequence (Q12809 whole entry): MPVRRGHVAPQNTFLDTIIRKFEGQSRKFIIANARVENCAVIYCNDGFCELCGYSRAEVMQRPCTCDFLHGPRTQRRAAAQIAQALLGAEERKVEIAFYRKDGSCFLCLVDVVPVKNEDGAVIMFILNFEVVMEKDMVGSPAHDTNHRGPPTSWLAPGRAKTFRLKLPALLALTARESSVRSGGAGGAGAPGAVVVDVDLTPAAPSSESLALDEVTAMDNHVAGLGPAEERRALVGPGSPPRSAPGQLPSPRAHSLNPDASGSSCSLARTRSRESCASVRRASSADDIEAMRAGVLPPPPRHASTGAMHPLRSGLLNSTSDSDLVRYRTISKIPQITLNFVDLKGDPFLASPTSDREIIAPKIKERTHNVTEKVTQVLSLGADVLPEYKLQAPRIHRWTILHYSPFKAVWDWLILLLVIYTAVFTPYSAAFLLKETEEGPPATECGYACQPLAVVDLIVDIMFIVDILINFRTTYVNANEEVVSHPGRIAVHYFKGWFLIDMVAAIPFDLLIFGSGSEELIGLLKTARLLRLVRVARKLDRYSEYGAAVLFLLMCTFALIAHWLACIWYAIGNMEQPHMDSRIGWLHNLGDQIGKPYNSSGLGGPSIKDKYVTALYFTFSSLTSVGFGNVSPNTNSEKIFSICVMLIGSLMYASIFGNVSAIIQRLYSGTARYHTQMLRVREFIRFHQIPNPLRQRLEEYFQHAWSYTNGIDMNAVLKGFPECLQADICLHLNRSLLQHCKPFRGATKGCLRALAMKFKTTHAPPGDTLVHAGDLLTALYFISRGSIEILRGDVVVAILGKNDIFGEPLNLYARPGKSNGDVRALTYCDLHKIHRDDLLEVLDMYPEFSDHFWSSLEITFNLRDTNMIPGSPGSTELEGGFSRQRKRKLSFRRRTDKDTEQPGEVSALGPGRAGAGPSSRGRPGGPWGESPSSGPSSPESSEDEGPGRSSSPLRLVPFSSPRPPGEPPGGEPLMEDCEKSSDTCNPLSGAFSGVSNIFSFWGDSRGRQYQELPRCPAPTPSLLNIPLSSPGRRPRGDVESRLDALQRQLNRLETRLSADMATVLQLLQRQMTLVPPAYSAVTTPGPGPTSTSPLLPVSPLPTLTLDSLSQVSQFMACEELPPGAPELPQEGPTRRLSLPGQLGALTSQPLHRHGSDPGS
Mitogen-activated protein kinase 3, sequence (P27361 whole entry): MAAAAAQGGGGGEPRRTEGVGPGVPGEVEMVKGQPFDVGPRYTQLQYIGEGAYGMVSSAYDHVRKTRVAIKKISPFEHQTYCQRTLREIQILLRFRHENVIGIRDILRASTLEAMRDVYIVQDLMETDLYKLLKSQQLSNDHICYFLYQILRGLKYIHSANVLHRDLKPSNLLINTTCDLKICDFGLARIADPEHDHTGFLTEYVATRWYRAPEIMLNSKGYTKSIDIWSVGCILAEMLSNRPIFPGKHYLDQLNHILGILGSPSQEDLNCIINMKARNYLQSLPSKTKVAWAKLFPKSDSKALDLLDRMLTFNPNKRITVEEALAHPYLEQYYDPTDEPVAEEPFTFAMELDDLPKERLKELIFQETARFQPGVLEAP
Mitogen-activated protein kinase 1, sequence (P28482 whole entry): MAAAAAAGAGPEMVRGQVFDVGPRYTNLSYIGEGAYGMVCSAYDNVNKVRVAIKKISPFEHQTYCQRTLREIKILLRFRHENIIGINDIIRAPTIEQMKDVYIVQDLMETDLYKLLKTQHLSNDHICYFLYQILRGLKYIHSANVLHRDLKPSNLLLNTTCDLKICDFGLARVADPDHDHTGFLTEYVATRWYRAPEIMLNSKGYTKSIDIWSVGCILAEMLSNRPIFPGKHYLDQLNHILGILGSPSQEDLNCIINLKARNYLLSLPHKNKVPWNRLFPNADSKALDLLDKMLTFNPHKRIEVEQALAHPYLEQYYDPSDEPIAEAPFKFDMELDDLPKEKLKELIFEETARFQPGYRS

Row | SMILES | IC50 [1] | IC50 [2] | Ki [2] | IC50 [3] | Ki [3] | IC50 [4] | Ki [4] | IC50 [5] | Ki [5] | IC50 [6] | IC50 [7] | IC50 [8] | IC50 [9] | IC50 [10] | IC50 [11] | IC50 [12] | IC50 [13] | Ki [13] | IC50 [14] | IC50 [15] | also measured
1 | CC(C)NC[C@H](O)COc1cccc2[nH]ccc12 | Not Active | Not Active | Not Active | Not Active | Not Active | Not Active | Not Active | Not Active | Not Active | Not Active | Not Active | Not Active | Not Active | Not Active | Not Active | Not Active | Not Active | Not Active | Not Active |  | 
2 | CC(/C=C1\SC(=S)N(CC(=O)O)C1=O)=C\c1ccccc1 | Not Active | Not Active | Not Active | Not Active | Not Active | Not Active | Not Active | Not Active | Not Active | Not Active | Not Active |  | Not Active | Not Active | Not Active | Not Active | Not Active | Not Active | Not Active | Not Active | Ki [15]: Not Active
3 | CCCSc1ccc2nc(NC(=O)OC)[nH]c2c1 [ALBENDAZOLE] | Not Active | Not Active | Not Active | Not Active | Not Active | Not Active | Not Active | Not Active | Not Active | Not Active | Not Active | Not Active | Not Active | Not Active | Not Active | Not Active | Not Active | Not Active | Not Active |  | 
4 | CCCCOC(=O)c1ccc(N)cc1 [BUTAMBEN] | Not Active | Not Active | Not Active | Not Active | Not Active | Not Active | Not Active | Not Active | Not Active | Not Active | Not Active | Not Active | Not Active | Not Active | Not Active | Not Active | Not Active | Not Active | Not Active |  | 
5 | O=C(O)c1cn(C2CC2)c2cc(N3CCNCC3)c(F)cc2c1=O [CIPROFLOXACIN] | Not Active | Not Active | Not Active |  |  | Not Active | Not Active | Not Active | Not Active | Not Active | Not Active | Not Active | Not Active | Not Active | Not Active | Not Active | Not Active | Not Active | Not Active |  | 
6 | COc1ccc([C@@H]2Sc3ccccc3N(CCN(C)C)C(=O)[C@@H]2OC(C)=O)cc1 [DILTIAZEM] | Not Active |  |  |  |  | Not Active | Not Active | Not Active | Not Active | Not Active | Not Active | Not Active | Not Active | Not Active | Not Active | Not Active | Not Active | Not Active | Not Active |  | IC50 ([2]; read-out: IC50): 28 nM; Ki ([2]; read-out: Ki): 25 nM
7 | O=C1OCCN1/N=C/c1ccc([N+](=O)[O-])o1 [FURAZOLIDONE] | Not Active | Not Active | Not Active |  |  | Not Active | Not Active | Not Active | Not Active | Not Active | Not Active | Not Active | Not Active | Not Active | Not Active | Not Active | Not Active | Not Active | Not Active |  | 
8 | C/C=C1\[C@H]2C=C(C)C[C@]1(N)c1ccc(=O)[nH]c1C2 [HUPERZINE A] | Not Active | Not Active | Not Active | Not Active | Not Active | Not Active | Not Active | Not Active | Not Active | Not Active |  | Not Active | Not Active | Not Active | Not Active | Not Active | Not Active | Not Active | Not Active | Not Active | Ki [15]: Not Active
9 | CNC(=O)Oc1ccc2c(c1)[C@]1(C)CCN(C)[C@@H]1N2C [PHYSOSTIGMINE] | Not Active | Not Active | Not Active | Not Active | Not Active | Not Active | Not Active | Not Active | Not Active | Not Active |  | Not Active | Not Active | Not Active | Not Active | Not Active | Not Active | Not Active | Not Active | Not Active | Ki [15]: Not Active
